Laboratory results as given in article PMC6476888, “Design and synthesis of anticancer 1-hydroxynaphthalene-2-carboxanilides with a p53 independent mechanism of action” (Scientific Reports, 2019).
Where two headings read alike, the source gives them in different places.

Experiments:
[1] = test system: CT-DNA; assay: Spectrophotometric DNA intercalation assay; format: binding, calf; details: for Changes in absorbance: bound to CT-DNA (18 µM), 1.5 h 37 °C, Tris-HCl pH 7.9; for % hypochromism / Δε: bound to CT-DNA; for red shift: wavelengths of maximum absorption, individual vs DNA-bound compound
Excerpt: The fused aromatic rings of the naphthalene moiety and halogen substituents in aniline may guarantee good intercalating properties[71],[72]. On the other hand, the intercalation of DNA may explain the high activity against both the wild-type and p53 mutants as was reported for a series of styrylquinolines. Binding to DNA causes the bases to mismatch or cleave, which results in the arrest of the cell cycle and apoptosis. The effectiveness of the p53 system is one of the most important factors in the response to therapy. We tested the intercalating properties of the selected compounds in a spectrophotometric assay on calf-thymus DNA. The absorption spectra of the tested compounds in the absence and presence of CT-DNA are presented in Figure S1 Supplementary Information and the spectral properties with doxorubicine and CP-31398 are summarized in Table 2.
For the DNA binding studies, Calf-thymus DNA (CT-DNA) was purchased from Sigma- Aldrich. The lyophilized CT-DNA was dissolved in 10 mM Tris-HCl, pH 7.9, mixed gently and left overnight at 4 °C. The purity of the CT-DNA solution was determined by measuring the ratio of UV absorbance at 260 and 280 nm. […] Then, the concentration of CT-DNA was determined from the absorbance at 260 nm using an extinction coefficient of 6600 M^−1cm^−1. The tested compounds including DOX and CP-31398 were dissolved to a concentration of 8.35 mM in DMSO, which was then used as the stock solution for preparing the various concentrations (25, 12.5, 6 and 3 µM) in 1 mL in 10 mM of Tris-HCl (pH 7.9). Afterwards, 18 µM CT-DNA was added to the prepared solutions, which were incubated for 1.5 h at 37 °C with occasional vortexing. The absorption spectra were measured using a Hitachi U-2900 spectrophotometer in the range of 200–500 nm. All absorption spectra were imported into OriginPro 8.0 and compared.

[2] = test system: HCT116^+/+; assay: Antiproliferative assay (MTS, 72 h) on HCT116 wild type; format: cell-based, human; details: MTS, 72 h incubation, read-out: Activity IC50 HCT116^+/+
Protocol: (§1) All of the synthesized compounds were tested for their antiproliferative activity against human colon cancer (Table 1). We used both the wild-type and p53-negative cell lines (HCT116^+/+ and HCT116^−/−, respectively). Mutations in the TP53 gene are present in more than 50% of all cancers and often specifically correspond to a difficult therapy, resistance or a bad prognosis[60]–[63]. The active compounds were additionally tested for their cytotoxicity against normal human fibroblasts. We used 5-fluorouracil (5-FLU), doxorubicin (DOX) and CP-31398 as the standards. 5-FLU is one of the first antimetabolites that was dedicated for cancer treatment and is still used for a wide range of cancers including colon carcinoma. Doxorubicin is a DNA topoisomerase II poison with a high intercalating potency, which is able to induce apoptosis through the p53 pathway. Although DOX has been described as being ineffective in some p53 mutants, its level of activity against the p53 null lines is similar. CP-31398, on the other hand, is an experimental drug in the clinical phase and its mechanism of action is through the reactivation some of p53 mutants. Its activity against the p53 null cell lines is greatly diminished and is actually lower than its cytotoxicity.
(§2) The human colon cancer cell line HCT116 wild type was obtained from ATCC and the normal human fibroblast cell lines NHDF were obtained from PromoCell. The human colon cancer cell line HCT116 with a p53 deletion (p53^−/−) was kindly provided by Prof. M. Rusin from the Maria Sklodowska-Curie Memorial Cancer Centre and Institute of Oncology in Gliwice, Poland[89]. The cells were grown as monolayer cultures in Dulbecco’s modified Eagle’s medium with the antibiotic gentamicin (200 μL/100 mL medium) in 75 cm^2 flasks (Nunc). The DMEM for the HCT116 were supplemented with 12% heat-inactivated fetal bovine serum (Sigma-Aldrich, St. Louis, MO, USA) and for NHDF with 15% non-inactivated fetal bovine serum (Sigma Aldrich, St. Louis, MO, USA). The cells were cultured under standard conditions at 37 °C in a humidified atmosphere at 5% CO2.
(§3) The cells were seeded in 96-well plates (Nunc) at a density of 5,000 cells/well (HCT116) and 4,000 cells/well (NHDF) and incubated at 37 °C for 24 h. The assay was performed following a 72 h incubation with varying concentrations of the compounds that were being tested. Then, 20 µL of CellTiter 96® AQueous One Solution-MTS (Promega) was added to each well (with 100 µL DMEM without phenol red) and incubated for 1 h at 37 °C. The optical densities of the samples were analyzed at 490 nm using a Synergy 4 multi-plate reader (BioTek, Winooski, VT, USA). The results are expressed as the percentage of the control and were calculated as the inhibitory concentration (IC50) values (using a GraphPad Prism 7). The IC50 parameter was defined as the compound concentration that was necessary to reduce the proliferation of cells to 50% of the untreated control. Each individual compound was tested in triplicate in a single experiment with each experiment being repeated three or four times.

[3] = test system: NHDF; assay: Cytotoxicity (MTS, 72 h) against normal human fibroblasts; format: cell-based; details: MTS, 72 h incubation
Protocol: as §1, §2, §3

[4] = test system: HCT116^−/−; assay: Antiproliferative assay (MTS, 72 h) on HCT116 with p53 deletion; format: cell-based, human; details: MTS, 72 h incubation
Protocol: as §1, §2, §3

[5] = test system: p53/p21 system in the HCT116 cells; assay: Western blot of p53/p21 activation; format: cell-based, human; details: wild-type HCT116, 12 and 24 h
Protocol: Further exploration of the cell death model was performed by a western blot analysis of protein activation in response to incubation with the tested compound (Figs 6, 7). […] The proapoptotic activation of the p53/p21 system was noticeable after the first 12 hours and then became stronger after 24 h. This effect was not observed in the case of the p53 null cells, which were unable to synthesize this protein.
The HCT116 cells were seeded in 3-cm Petri dishes (Nunc) at a density of 0.5·10^6 cells/well and incubated overnight. […] The cells were harvested by trypsinization and washed with cold PBS. Next, the cells were centrifuged and suspended in an RIPA buffer (Thermo-Fisher Scientific) containing Halt Protease Inhibitor Cocktail (Thermo-Fisher Scientific), Halt Phosphatase Inhibitor Cocktail (Thermo-Fisher Scientific) along with 0.5 M EDTA and lysed for 20 min on ice. Then, the lysates were sonicated, centrifuged at 10,000 rpm for 10 min at 4 °C and the supernatants were collected for further analysis. The protein concentration was determined using a Micro BCA™ Protein Assay Kit (Thermo-Fisher Scientific, Waltham, MA, USA c) according to the manufacturer’s instructions. Equal amounts of the proteins (20 μg) were electrophoresed on SDS-Page gels and transferred onto nitrocellulose membranes. The membranes were blocked in 5% non-fat milk prepared in PBS containing 0.1% Tween-20 (TPBS) for 1 h. After blocking, the membranes were incubated with specific primary antibodies: p21^Waf1/Cip1, p53, cytochrome c, caspase-8, caspase-9, AIF, PARP, GAPDH and β-Actin overnight at 4 °C, and then washed and incubated with horseradish peroxidase (HRP)-conjugated secondary antibodies for 1 h at room temperature. All of the antibodies were purchased from CellSignaling (Danvers, MA, USA) and were diluted 1:1000 in 5% milk in TPBS. Finally, the membranes were washed and incubated with a SuperSignal™ West Pico Chemiluminescent Substrate (Thermo-Fisher Scientific). The chemiluminescence signals were captured using a ChemiDoc™ XRS+ System (Bio-Rad Laboratories, Hercules, CA, USA). The experiments were performed at least three times. Densitometric analysis was performed using ImageJ 1.41 software (Wayne Rasband, National Institutes of Health, USA).

[6] = for CP-31398 first value (312 nm band)

Compound | Changes in absorbance [1] | % hypochromism [1, 6] [%] | Δε [1, 6] [M⁻¹ cm⁻¹] | % hypochromism ([1]; second value (350 nm band)) [%] | Δε ([1]; second value (350 nm band)) [M⁻¹ cm⁻¹] | red shift [1] [nm] | IC50 [2] [µM] | IC50 [3] [µM] | IC50 [4] [µM] | IC50 ([2]; Homo sapiens, HCT-116) [µM] | IC50 ([3]; Homo sapiens, NHDF) [µM] | IC50 ([4]; Homo sapiens, HCT-116) [µM] | p21 protein amount [5] | p53 protein amount / activation [5]
COc1ccc(/C=C/c2nc(NCCCN(C)C)c3ccccc3n2)cc1 [CP-31398, reference compound] | hypochromism | 41.4 | 1515.6 | 37.4 | 1693.3 | 0 | 18.6 ± 0.92 | 12.3 ± 0.54 | 26.3 ± 1.41 |  |  |  |  | 
COc1cccc2c1C(=O)c1c(O)c3c(c(O)c1C2=O)C[C@@](O)(C(=O)CO)C[C@@H]3O[C@H]1C[C@H](N)[C@H](O)[C@H](C)O1 [DOX, doxorubicin, reference compound] | hypochromism | 34.2 | 3235.6 |  |  | 10 |  |  |  | 0.34 ± 0.04 | 3.38 ± 1.29 | 0.38 ± 0.03 | dramatic increase | dramatic increase
